Laboratory results: ChEMBL document CHEMBL6177981, “Bardoxolone Derivatives as Novel Pseudo-Natural Necroptosis Inhibitors by Destabilizing HSP90 Client Proteins” (J Med Chem, 2025)
Calls of active or inactive are those of the source. The rule behind the calls is not given here.

Assays:
EOL1 = experiment: Anti-necroptotic activity in TSZ-induced human EOL1 cells assessed as increase in cell viability at 2.5 to 20 uM preincubated with compound followed by Z-VAD-FMK, SM164 and TNFalpha addition and measured after 7 hrs by CellTiter-Lumi luminescent cell viability assay relative to control; type: functional; conditions: dose 2.5-20 µM
HT-29 [1] = experiment: Anti-apoptotic activity in TS-induced human HT-29 cells assessed as increase in cell viability at 1.25 to 20 uM preincubated with compound followed by TNF-alpha and SM164 addition and measured after 36 hrs by CellTiter-Lumi luminescent cell viability assay; type: functional, cell-based; conditions: dose 1.25-20 µM
Mus musculus = experiment: Anti-necroptotic activity in TNFalpha/Z-VAD-FMK induced SIRS male C57BL/6J mouse model assessed as reduction in IL-1beta in serum pre-administered orally with compound via gavage for 2 hrs followed by […] of Z-VAD-FMK stimulation for 15 mins with subsequent TNF-alpha stimulation for 1 hrs and re-current […] of Z-VAD-FMK stimulation and measured after 8 hrs post SIRS induction by ELISA; type: functional, organism-based; conditions: dose 2.5-10 mg/kg, route po, time 10.0 hrs
[2] = Bioavailability in Sprague-Dawley rat at 10 mg/kg, IG measured after 24 hrs by LC-MS/MS analysis; type: ADME, organism-based; conditions: in vivo, po
[3] = Acute toxicity in male C57BL/6J mouse assessed as structural changes in lung at 2 g/Kg, IG measured after 72 hrs by H and E staining based analysis; type: tissue-based; conditions: in vivo, po, 2000 mg/kg
[4] = Acute toxicity in male C57BL/6J mouse assessed as hemorrhage in intestine at 2 g/Kg, IG measured after 72 hrs by H and E staining based analysis; type: tissue-based; conditions: in vivo, po, 2000 mg/kg
HT-29 [5] = experiment: Downregulation of RIPK1 protein level in human HT-29 cells at 6 uM preincubated with MG132 for 2 hrs followed by compound addition and measured after 9 hrs by Western blot analysis; type: functional, cell-based
HT-29 [6] = experiment: Downregulation of RIPK1 protein level in human HT-29 cells at 6 uM preincubated with NH4Cl for 2 hrs followed by compound addition and measured after 9 hrs by Western blot analysis; type: functional, cell-based
HT-29 [7] = experiment: Downregulation of RIPK3 protein level in human HT-29 cells at 6 uM preincubated with MLN4924 for 2 hrs followed by compound addition and measured after 9 hrs by Western blot analysis; type: functional, cell-based
HeLa [8] = experiment: Inhibition of RIPK1 protein expression in RIPK3-deficient human HeLa cells at 0.75 to 6 uM incubated for 9 hrs by Western blot analysis; type: functional, cell-based; conditions: dose 0.75-6 µM
HeLa [9] = experiment: Inhibition of RIPK1 protein expression in RIPK3-deficient human HeLa cells at 6 uM preincubated with MG132 for 2 hrs followed by compound addition and measured after 9 hrs by Western blot analysis; type: functional, cell-based

With Cn1ccc(-c2ccc(NC(=O)[C@]34CCC(C)(C)C[C@H]3[C@H]3C(=O)C=C5[C@@]6(C)C=C(C#N)C(=O)C(C)(C)[C@@H]6CC[C@@]5(C)[C@]3(C)CC4)cc2)n1 the Activity (EOL1) was 100%, the Activity (HT-29 [1]) was “inactive” and the Activity (Mus musculus) was “Dose-dependent-effect”. For the same compound, the bioavailability [2] was 4.66%, the Activity [3] was “Non-toxic” and the Activity [4] was “Non-toxic”. For the same compound, the Activity (HT-29 [5]) was “Active”, the Activity (HT-29 [6]) was “Active” and the Activity (HT-29 [7]) was “Active”. For the same compound, the inhibition (HeLa [8]) was “Active” and the inhibition (HeLa [9]) was “Active”.
